Experimental data reported in PubChem BioAssay AID248 (DTP/NCI, 2004).
“And” between values parts separate entries of the source, which are not always exact repeats. Equal values may be shown once. Toxic doses and inconclusive results are not listed. Cut-off read from the data, not from the text of the source: active = T/C of 150% or more; inactive = T/C below 125%.

Tested on: L1210 leukemia ip in BDF1 mice, survival T/C
Test: NCI In Vivo Anticancer Drug Screen. Data for tumor model L1210 Leukemia (intraperitoneal) in B6D2F1 (BDF1) mice
Settings: endpoint: mean survival time, higher = longer survival
Outline: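 Tumor cells were implanted, animals were treated, and survival was followed. The result divides the treated measurement by the vehicle-control measurement.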

[1] = dose: 100.0 mg/kg/injection, schedule: Q01DX009 (ip), vehicle: saline with Tween-80
[2] = dose: 200.0 mg/kg/injection, schedule: Q01DX009 (ip), vehicle: saline with Tween-80
[3] = dose: 200.0 mg/kg/injection, schedule: Q04DX003 (ip), vehicle: saline with Tween-80
[4] = dose: 400.0 mg/kg/injection, schedule: Q04DX003 (ip), vehicle: saline with Tween-80
[5] = dose: 50.0 mg/kg/injection, schedule: Q01DX009 (ip), vehicle: Klucel (hydroxypropylcellulose) (HPC)
[6] = dose: 100.0 mg/kg/injection, schedule: Q04DX003 (ip), vehicle: Klucel (hydroxypropylcellulose) (HPC)
[7] = dose: 200.0 mg/kg/injection, schedule: Q04DX003 (ip), vehicle: Klucel (hydroxypropylcellulose) (HPC)
[8] = dose: 400.0 mg/kg/injection, schedule: Q04DX003 (ip), vehicle: Klucel (hydroxypropylcellulose) (HPC)
[9] = dose: 100.0 mg/kg/injection, schedule: Q01DX001 (ip), vehicle: carboxymethylcellulose (CMC)
[10] = dose: 200.0 mg/kg/injection, schedule: Q01DX001 (ip), vehicle: carboxymethylcellulose (CMC)
[11] = dose: 400.0 mg/kg/injection, schedule: Q01DX001 (ip), vehicle: carboxymethylcellulose (CMC)
[12] = dose: 100.0 mg/kg/injection, schedule: Q01DX001 (ip), vehicle: saline
[13] = dose: 200.0 mg/kg/injection, schedule: Q01DX001 (ip), vehicle: saline
[14] = dose: 400.0 mg/kg/injection, schedule: Q01DX001 (ip), vehicle: saline
[15] = dose: 12.5 mg/kg/injection, schedule: Q04DX003 (ip), vehicle: saline
[16] = dose: 25.0 mg/kg/injection, schedule: Q04DX003 (ip), vehicle: saline
[17] = dose: 100.0 mg/kg/injection, schedule: Q04DX003 (ip), vehicle: saline with Tween-80

Measured: T/C

CC1CCC2=CC(=O)CCC2(C)C1C (stereo not given)
inactive: [1] 101 % of control | [2] 96 % of control | dose: 400.0 mg/kg/injection, schedule: Q01DX009 (ip), vehicle: saline with Tween-80 91 % of control

c1ccc2c(c1)Cc1cc3ccccc3cc1-2
inactive: dose: 50.0 mg/kg/injection, schedule: Q01DX001 (ip), vehicle: gum acacia 94 % of control | dose: 100.0 mg/kg/injection, schedule: Q01DX001 (ip), vehicle: gum acacia 95 % of control | dose: 200.0 mg/kg/injection, schedule: Q01DX001 (ip), vehicle: gum acacia 94 % of control

COc1ccc(-c2cc(C(=O)N/N=C/c3ccc([N+](=O)[O-])cc3)c3ccc(C)cc3n2)cc1OC
inactive: [3] 86 % of control | [4] 94 % of control

CC1(C)N=C(N)N=C(N)N1c1cc(Cl)c(Cl)cc1Cl
inactive: dose: 6.0 mg/kg/injection, schedule: Q01DX009 (ip), vehicle: Klucel (hydroxypropylcellulose) (HPC) 105 % of control | dose: 12.0 mg/kg/injection, schedule: Q01DX009 (ip), vehicle: Klucel (hydroxypropylcellulose) (HPC) 103 % of control | dose: 12.0 mg/kg/injection, schedule: Q04DX003 (ip), vehicle: Klucel (hydroxypropylcellulose) (HPC) 95 % of control | dose: 25.0 mg/kg/injection, schedule: Q01DX009 (ip), vehicle: Klucel (hydroxypropylcellulose) (HPC) 96 % of control and 102 % of control | dose: 25.0 mg/kg/injection, schedule: Q04DX003 (ip), vehicle: Klucel (hydroxypropylcellulose) (HPC) 101 % of control | [5] 108 % of control | dose: 50.0 mg/kg/injection, schedule: Q04DX003 (ip), vehicle: Klucel (hydroxypropylcellulose) (HPC) 102 % of control

CC(=O)OC1COC(NC(=O)NCCCl)C(OC(C)=O)C1OC(C)=O (stereo not given)
inactive: [6] 109 % of control | [7] 103 % of control | [8] 103 % of control

Cc1c(O)ccc([N+](=O)[O-])c1O
inactive: dose: 6.25 mg/kg/injection, schedule: Q01DX009 (ip), vehicle: saline with Tween-80 93 % of control | dose: 12.5 mg/kg/injection, schedule: Q01DX009 (ip), vehicle: saline with Tween-80 97 % of control | dose: 25.0 mg/kg/injection, schedule: Q01DX009 (ip), vehicle: saline with Tween-80 97 % of control

Cc1ccc(S(=O)(=O)Nc2ccc(Nc3ccccc3)cc2)cc1
inactive: dose: 50.0 mg/kg/injection, schedule: Q01DX009 (ip), vehicle: saline with Tween-80 94 % of control | [1] 94 % of control | [2] 102 % of control

CCCCCCC(=O)N1C(C)CCCC1C (stereo not given)
inactive: dose: 100.0 mg/kg/injection, schedule: Q04DX002 (ip), vehicle: saline 107 % of control | dose: 200.0 mg/kg/injection, schedule: Q04DX002 (ip), vehicle: saline 103 % of control | dose: 400.0 mg/kg/injection, schedule: Q04DX002 (ip), vehicle: saline 92 % of control

COC1=C(c2ccccc2)P(=O)(Cc2ccccc2)C2CCCC12 (stereo not given)
inactive: [6] 109 % of control | [7] 96 % of control | [8] 100 % of control

O=c1nc2c3ncn(Cc4ccccc4)c3nnn2[nH]1
inactive: [9] 100 % of control | [10] 106 % of control | [11] 100 % of control

COc1cccc(/C=C2\SC(=S)NC2=O)c1
inactive: [12] 101 % of control | [13] 95 % of control | [14] 95 % of control

O=CO.[Pb]
inactive: [12] 90 % of control | [13] 92 % of control | [14] 98 % of control

Oc1ccc(Nc2ccnc3cc(Cl)ccc23)cc1CN1CCCC1
inactive: dose: 12.5 mg/kg/injection, schedule: Q01DX009 (ip), vehicle: saline 102 % of control | [15] 101 % of control | dose: 25.0 mg/kg/injection, schedule: Q01DX009 (ip), vehicle: saline 102 % of control | [16] 103 % of control | dose: 50.0 mg/kg/injection, schedule: Q01DX009 (ip), vehicle: saline 100 % of control | dose: 50.0 mg/kg/injection, schedule: Q04DX003 (ip), vehicle: saline 97 % of control | dose: 75.0 mg/kg/injection, schedule: Q01DX009 (ip), vehicle: saline 95 % of control | dose: 115.0 mg/kg/injection, schedule: Q01DX009 (ip), vehicle: saline 102 % of control

C/C(CC(O)(C(F)(F)F)C(F)(F)F)=N\N1CCCCCC1
inactive: [6] 97 % of control | [7] 103 % of control | [8] 94 % of control

O=C(O)C(=S)Cc1cc(=O)[nH]c(=S)[nH]1
inactive: [17] 102 % of control | [3] 97 % of control | [4] 92 % of control

N#CCC[P+](c1ccccc1)(c1ccccc1)c1ccccc1
inactive: dose: 5.0 mg/kg/injection, schedule: Q01DX001 (ip), vehicle: saline 102 % of control | dose: 10.0 mg/kg/injection, schedule: Q01DX001 (ip), vehicle: saline 102 % of control | dose: 20.0 mg/kg/injection, schedule: Q01DX001 (ip), vehicle: saline 102 % of control | dose: 40.0 mg/kg/injection, schedule: Q01DX001 (ip), vehicle: saline 102 % of control | dose: 80.0 mg/kg/injection, schedule: Q01DX001 (ip), vehicle: saline 100 % of control | [12] 109 % of control | [13] 108 % of control

CC(=O)Oc1ccc(C=O)cc1
inactive: dose: 50.0 mg/kg/injection, schedule: Q04DX003 (ip), vehicle: saline with Tween-80 96 % of control | [17] 91 % of control | [3] 96 % of control

Nc1ncnc2n[nH]nc12
inactive: [5] 104 % of control | dose: 100.0 mg/kg/injection, schedule: Q01DX009 (ip), vehicle: Klucel (hydroxypropylcellulose) (HPC) 106 % of control

CC(C(=O)c1cc(O)c(O)cc1C(O)(C(F)(F)F)C(F)(F)F)C(O)(C(F)(F)F)C(F)(F)F (stereo not given)
inactive: [17] 102 % of control | [3] 98 % of control | [4] 98 % of control

O=C1CCCC(=O)c2c(O)ccc(O)c21
inactive: [12] 96 % of control | [13] 98 % of control | [14] 96 % of control

CCCCn1cnc2ccc3[nH]c(C)nc3c2c1=O
inactive: dose: 12.5 mg/kg/injection, schedule: Q01DX001 (ip), vehicle: carboxymethylcellulose (CMC) 104 % of control | dose: 25.0 mg/kg/injection, schedule: Q01DX001 (ip), vehicle: carboxymethylcellulose (CMC) 96 % of control

N=C(N)c1ccc(-n2nc3ccc(C(=N)N)cc3n2)cc1
inactive: dose: 6.25 mg/kg/injection, schedule: Q04DX003 (ip), vehicle: saline 100 % of control and 103 % of control | [15] 100 % of control | [16] 100 % of control

S=c1[nH]nc2scnn12
inactive: dose: 50.0 mg/kg/injection, schedule: Q01DX001 (ip), vehicle: carboxymethylcellulose (CMC) 94 % of control | [9] 94 % of control | [10] 97 % of control | [11] 94 % of control
